US20090130273A1, “FREEZE DRIED SUCRALOSE” (TATE & LYLE TECHNOLOGY LIMITED, priority 2007, published 2009)

Legend:
[1] = Moisture absorption as a function of relative humidity; format: physicochemical; conditions: for moisture absorption behaviour compared with the other samples: RH ramp 0 to 80 % and back down to 20 %
Method: Sucralose beads prepared from seeded and unseeded aqueous sucralose solutions using the liquid nitrogen technique described above were evaluated to determine degree of moisture absorption as a function of relative humidity (% RH). A sample of commercial sucralose needles (“neat” sucralose) was also evaluated in parallel, and the results for these runs are shown in Table 1. Each column represents a ramping up of % RH from zero to 80, followed by ramping back down to 20.

[2] = Thermogravimetric analysis, stability at high temperature; format: physicochemical; conditions: mass as a function of time at 90° C. in nitrogen
Method: Thermogravimetric analysis was performed on commercial, seeded and unseeded samples made as described above in order to assess stability of the products at high temperature. The results are shown in FIGS. 4, 5 and 6, respectively. In each case, the mass of a sample was followed as a function of time at 90° C. in nitrogen, recorded as percent of original mass remaining. The vertical lines represent the point of the mass curve representing the halfway point of mass loss, and thus may be used as a measure of how rapidly decomposition set in. […] This further bears out the fact, noted above in view of the moisture absorption results, that these samples represent three different forms of sucralose.

Row | Mass Increase (%) ([1]; 0 % RH, start of upward ramp) | Mass Increase (%) ([1]; 20 % RH, ramping back down) | Mass Increase (%) ([1]; 20 % RH, ramping up) | Mass Increase (%) ([1]; 30 % RH, ramping back down) | Mass Increase (%) ([1]; 30 % RH, ramping up) | Mass Increase (%) ([1]; 40 % RH, ramping back down) | Mass Increase (%) ([1]; 40 % RH, ramping up) | Mass Increase (%) ([1]; 50 % RH, ramping back down) | Mass Increase (%) ([1]; 50 % RH, ramping up) | Mass Increase (%) ([1]; 60 % RH, ramping back down) | Mass Increase (%) ([1]; 60 % RH, ramping up) | Mass Increase (%) ([1]; 70 % RH, ramping back down) | Mass Increase (%) ([1]; 70 % RH, ramping up) | Mass Increase (%) ([1]; 80 % RH, top of ramp) | moisture absorption behaviour compared with the other samples ([1]; listed as unseeded product) | onset of decomposition (halfway point of mass loss) ([2]; listed as unseeded product) | Mass Increase (%) ([1]; 80 % RH, top of ramp, listed as neat (commercial) product) | onset of decomposition (halfway point of mass loss) ([2]; listed as seeded product) | Structure (SMILES) | onset of decomposition (halfway point of mass loss) ([2]; listed as commercial sample) | moisture absorption behaviour compared with the other samples ([1]; listed as seeded product)
1 | 0.00 | 0.60 | 1.09 | 0.81 | 2.21 | 1.15 | 3.41 | 2.01 | 4.91 | 2.91 | 6.21 | 4.11 | 6.71 | 7.11 | significantly higher moisture absorption | intermediate between the two |  |  | OCC1O[C@@H](O[C@]2(CCl)O[C@@H](CCl)C(O)C2O)C(O)C(O)[C@H]1Cl (stereo in doubt) [Not Seeded, 4,1′,6′-trichloro-4,1′,6′-trideoxygalactosucrose] |  | 
2 | 0.00 | 0.00 | 0.00 | 0.00 | 0.00 | 0.00 | 0.00 | 0.00 | 0.00 | 0.00 | 0.00 | 0.00 | 0.00 | 0.10 |  |  | 0.1 |  | OCC1O[C@@H](O[C@]2(CCl)O[C@@H](CCl)C(O)C2O)C(O)C(O)[C@H]1Cl (stereo partly drawn) [Neat, 4,1′,6′-trichloro-4,1′,6′-trideoxygalactosucrose, reference compound] | earliest to show significant decomposition | 
3 | 0 | 0.02 | 0.01 | 0.02 | 0.02 | 0.02 | 0.02 | 0.03 | 0.02 | 0.03 | 0.03 | 0.04 | 0.03 | 0.04 |  |  |  | took considerably longer | OCC1O[C@@H](O[C@]2(CCl)O[C@@H](CCl)C(O)C2O)C(O)C(O)[C@H]1Cl (stereo partly drawn) [Seeded, 4,1′,6′-trichloro-4,1′,6′-trideoxygalactosucrose] |  | maximum value was less than half of that seen with the commercial product
